Laboratory results published in US10919859B2, “Benzylaminopyridylcyclopropanecarboxylic acids, pharmaceutical compositions and uses thereof” (Boehringer Ingelheim International GmbH, priority 2017, dated 2021).
Converted amounts (≈) assume the structure as drawn.

Key:
human GPR40 receptor = human GPR40 receptor (Homo sapiens (Human), UniProt O14842); assay: IP1 accumulation measurements using the IPOne assay system; type: cell-based; details: 1321N1 cells stably expressing human GPR40, 1 h at 37° C.
human GPR40 receptor, sequence (O14842 whole entry): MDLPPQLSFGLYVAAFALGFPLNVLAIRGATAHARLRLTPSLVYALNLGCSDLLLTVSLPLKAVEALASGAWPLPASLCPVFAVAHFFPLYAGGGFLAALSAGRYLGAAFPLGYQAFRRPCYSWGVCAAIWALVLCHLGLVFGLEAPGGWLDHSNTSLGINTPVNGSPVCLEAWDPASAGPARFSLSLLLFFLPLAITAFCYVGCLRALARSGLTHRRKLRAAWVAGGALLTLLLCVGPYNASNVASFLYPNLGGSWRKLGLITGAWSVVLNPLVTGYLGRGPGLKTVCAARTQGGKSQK
Description: IP1 accumulation measurements using the IPOne assay system—1321N1 cells stably expressing human GPR40 receptor (Euroscreen, Belgium) are seeded 24 h before the assay in white 384-well plates in culture medium containing 10% FCS, 1% Na-Pyruvate and 400 μg/mL G418. IP1 is assayed according to the manufacturer's description (Cisbio Bioassays, France). In brief, the assay is started by substitution of the culture medium by stimulation buffer (Hepes 10 mM, CaCl2 1 mM, MgCl2 0.5 mM, KCl 4.2 mM, NaCl 146 mM, glucose 5.5 mM and LiCl 50 mM, pH 7.4). Cells are stimulated for 1 h at 37° C., 5% CO2 by addition of the compounds that are diluted in stimulation buffer containing LiCl. Assays are stopped by adding HTRF-conjugates (IP1-d2 and Anti-IP1 cryptate Tb) and lysis buffer, provided by the manufacturer. After an incubation time of 1 h at room temperature plates are measured using an EnVision™, Perkin Elmer. The obtained fluorescence ratios at 665/615 […] are then used to calculate the pEC50 values using Assay Explorer 3.3 Software (Accelrys, Inc.) by interpolation using an IP1 reference curve and subsequent sigmoidal curve fitting allowing for a variable hill slope.

[1] = Aqueous solubility (buffer vs acetonitrile/water, LC-UV); type: physicochemical; details: for solubility at 24 h: aqueous buffer, kinetic from dmso stock
Description: The aqueous solubility of the compounds of the invention is determined by comparing the amount dissolved in buffer to the amount in an acetonitrile/water (1/1) solution. Starting from a 10 mM DMSO stock solution aliquots are diluted with acetonitrile/water (1/1) or buffer, respectively. After 24 h of shaking, the solutions are filtrated and analyzed by LC-UV. The amount dissolved in buffer is compared to the amount in the acetonitrile solution.

[2] = pH 2.2 buffer, 24 h shaking, 2.5% DMSO, examples in this invention
[3] = pH 2.2 buffer, 24 h shaking, 2.5% DMSO, reference examples of WO 2013/178575

SMILES	EC50 (human GPR40 receptor) [µM]	Solubility at pH value 2.2 [1, 2] [μg/mL]	solubility at 24 h [1, 2] [µg/mL]	Solubility at pH value 2.2 ([1]; pH 2.2) [μg/mL]	solubility at 24 h [1, 3] [µg/mL]
O=C(O)[C@H]1C[C@@H]1c1ccc(NCc2cc(-c3ccc(-c4cnco4)cc3)ccc2F)cn1 [Example 32]	0.174	56			
Cc1cc(OCCC(C)(C)O)cc(C)c1-c1cc(CNc2ccc([C@H]3C[C@@H]3C(=O)O)nc2)ccc1C(F)(F)F [Example 5]	0.012		< 1		
COc1cc(C)c(-c2ccc(F)c(CNc3ccc([C@H]4C[C@@H]4C(=O)O)nc3)c2)c(C)c1 [Example 35]	0.049			63	
Cc1cc(OCC2CCOCC2)cc(C)c1-c1ccc(F)c(CNc2ccc([C@H]3C[C@@H]3C(=O)O)nc2)c1 [Example 44]	0.018			66	
CCc1cccc(CC)c1-c1ccc(F)c(CNc2ccc([C@H]3C[C@@H]3C(=O)O)nc2)c1 [Example 53]	0.057	50			
Cc1cc(C(=O)N(C)C)cc(C)c1-c1ccc(F)c(CNc2ccc([C@H]3C[C@@H]3C(=O)O)nc2)c1 [Example 42]	0.231			71	
Cc1cc(OCC2(O)CCS(=O)(=O)CC2)cc(C)c1-c1ccc(F)c(CNc2ccc([C@H]3C[C@@H]3C(=O)O)nc2)c1 [Example 46]	0.171			102	
Cc1c(C#N)cccc1-c1ccc(F)c2c1CC[C@H]2Oc1ccc([C@H]2C[C@@H]2C(=O)O)cc1 [WO 2013/178575 Example 54, reference compound]					< 1
Cc1cc(-c2cc(=O)n(C)cn2)cc(C)c1-c1ccc(F)c(CNc2ccc([C@H]3C[C@@H]3C(=O)O)nc2)c1 [Example 18]	0.023			72	
Nc1cc(F)c(-c2ccc(F)c(CNc3ccc([C@H]4C[C@@H]4C(=O)O)nc3)c2)c(F)c1 [Example 34]	1.45			79	
Cc1cc(C(=O)NCC(C)(C)O)cc(C)c1-c1ccc(F)c2c1CC[C@H]2Oc1ccc([C@H]2C[C@@H]2C(=O)O)cc1 [WO 2013/178575 Example 15, reference compound]					< 1
Cc1cc(-c2ccn(C)c(=O)c2)cc(C)c1-c1ccc(F)c(CNc2ccc([C@H]3C[C@@H]3C(=O)O)nc2)c1 [Example 16]	0.029			79	
Cc1ccc(Cl)c(-c2ccc(F)c(CNc3ccc([C@H]4C[C@@H]4C(=O)O)nc3)c2)c1Cl [Example 36]	0.035			43	
Cc1cc(OCC2(O)CCSCC2)cc(C)c1-c1ccc(F)c(CNc2ccc([C@H]3C[C@@H]3C(=O)O)nc2)c1 [Example 48]	0.056			67	
Cc1cc(OCCCS(C)(=O)=O)cc(C)c1-c1cccc(CNc2ccc([C@H]3CC3C(=O)O)nc2)c1 (stereo partly shown) [Example 1]	0.05		83 (≈ 163 µM)		
Cc1cccc(C)c1-c1ccc(F)c(CNc2ccc([C@H]3C[C@@H]3C(=O)O)nc2)c1 [Example 41]	0.041			59	
COc1ccc(-c2ccc(-c3cc(CNc4ccc([C@H]5C[C@@H]5C(=O)O)nc4)c(F)cc3F)cc2)nn1 [Example 6, (1S,2S)-2-(5-{[4,6-Difluoro-4′-(6-methoxy-pyridazin-3-yl)-biphenyl-3-ylmethyl]-amino}-pyridin-2-yl)-cyclopropanecarboxylic acid]	0.064		56 (≈ 115 µM)		
Cc1cc(OCC2(O)CCOCC2)cc(C)c1-c1ccc(F)c(CNc2ccc([C@H]3C[C@@H]3C(=O)O)nc2)c1 [Example 49]	0.147			83	
Cc1cc(OCC(C)(C)O)cc(C)c1-c1ccc(F)c(CNc2ccc([C@H]3C[C@@H]3C(=O)O)nc2)c1 [Example 21]	0.101			82	
COc1cc(-c2cc(C)c(-c3ccc(F)c(CNc4ccc([C@H]5C[C@@H]5C(=O)O)nc4)c3)c(C)c2)ccn1 [Example 47]	0.005			57	

SMILES	EC50 (human GPR40 receptor) [µM]	Solubility at pH value 2.2 [1, 2] [μg/mL]	solubility at 24 h [1, 2] [µg/mL]	Solubility at pH value 2.2 ([1]; pH 2.2) [μg/mL]	solubility at 24 h [1, 3] [µg/mL]
Cc1cc(-c2ccn(C)c(=O)c2)cc(C)c1-c1ccc(F)c(CNc2ccc([C@H]3C[C@@H]3C(=O)O)nc2)c1 [Example 17]	0.018			73	
O=C(O)[C@H]1C[C@@H]1c1ccc(NCc2ccc(C(F)(F)F)c(-c3ccc(OCC4CC4)cc3)c2)cn1 [Example 3, (1S,2S)-2-{5-[(4′-Cyclopropylmethoxy-6-trifluoromethyl-biphenyl-3-ylmethyl)-amino]-pyridin-2-yl}-cyclopropanecarboxylic acid]	0.022		22 (≈ 45.6 µM)		
Cc1cc(C#N)cc(C)c1-c1ccc(F)c(CNc2ccc([C@H]3C[C@@H]3C(=O)O)nc2)c1 [Example 57]	0.091			59	
Cc1cnc(-c2cc(C)c(-c3ccc(F)c(CNc4ccc([C@H]5C[C@@H]5C(=O)O)nc4)c3)c(C)c2)nc1 [Example 51]	0.006	58			
O=C(O)[C@H]1C[C@@H]1c1ccc(NCc2cc(-c3ccccc3C(F)(F)F)ccc2F)cn1 [Example 37]	0.038			68	
O=C(O)[C@H]1C[C@@H]1c1ccc(NCc2cc(-c3c(Cl)cccc3Cl)ccc2F)cn1 [Example 30]	0.034			53	
O=C(O)[C@H]1C[C@@H]1c1ccc(NCc2cc(-c3ccc(O)c(Cl)c3)c(F)cc2F)cn1 [Example 9, (1S,2S)-2-{5-[(3′-Chloro-4,6-difluoro-4′-hydroxy-biphenyl-3-ylmethyl)-amino]-pyridin-2-yl}-cyclopropanecarboxylic acid]	0.943		58 (≈ 135 µM)		
COc1ccc(-c2ccc(-c3cc(CNc4ccc([C@H]5C[C@@H]5C(=O)O)nc4)c(F)cc3F)cc2)nc1 [Example 7, (1S,2S)-2-(5-{[4,6-Difluoro-4′-(5-methoxy-pyridin-2-yl)-biphenyl-3-ylmethyl]-amino}-pyridin-2-yl)-cyclopropanecarboxylic acid]	0.027		77 (≈ 158 µM)		
O=C(O)[C@H]1C[C@@H]1c1ccc(NCc2cc(-c3c(F)cc(F)cc3F)ccc2F)cn1 [Example 23]	0.505			53	
Cc1cc(-c2ccn(C)c(=O)n2)cc(C)c1-c1ccc(F)c(CNc2ccc([C@H]3C[C@@H]3C(=O)O)nc2)c1 [Example 56]	0.032	86			
Cc1cc(N)ccc1-c1cc(CNc2ccc([C@H]3C[C@@H]3C(=O)O)nc2)c(F)cc1F [Example 8, (1S,2S)-2-{5-[(4′-Amino-4,6-difluoro-2′-methyl-biphenyl-3-ylmethyl)-amino]-pyridin-2-yl}-cyclopropanecarboxylic acid]	0.127		> 96		
Cc1cc(OCCC(C)(C)O)cc(C)c1-c1ccc(F)c2c1CC[C@H]2Oc1ccc([C@H]2C[C@@H]2C(=O)O)cc1 [WO 2013/178575 Example 17, reference compound]					< 1
COc1cc(F)c(-c2ccc(F)c(CNc3ccc([C@H]4C[C@@H]4C(=O)O)nc3)c2)c(F)c1 [Example 40]	0.988			62	
O=C(O)[C@H]1C[C@@H]1c1ccc(NCc2ccc(C(F)(F)F)c(-c3ccc(OC(F)(F)F)cc3)c2)cn1 [Example 4, (1S,2S)-2-{5-[(4′-Trifluoromethoxy-6-trifluoromethyl-biphenyl-3-ylmethyl)-amino]-pyridin-2-yl}-cyclopropanecarboxylic acid]	0.044		14 (≈ 28.2 µM)		
COc1cc(OC)c(Cl)c(-c2ccc(F)c(CNc3ccc([C@H]4C[C@@H]4C(=O)O)nc3)c2)c1Cl [Example 28]	0.03			18	
Cc1cc(OCC(C)(C)C#N)cc(C)c1-c1ccc(F)c(CNc2ccc([C@H]3C[C@@H]3C(=O)O)nc2)c1 [Example 13]	0.059			49	
Cc1cc(O[C@H]2CCOC2)cc(C)c1-c1ccc(F)c(CNc2ccc([C@H]3C[C@@H]3C(=O)O)nc2)c1 [Example 25]	0.028			69	
CNC(=O)c1cc(C)c(-c2ccc(F)c(CNc3ccc([C@H]4C[C@@H]4C(=O)O)nc3)c2)c(C)c1 [Example 43]	0.358			84	
N#CC1(c2ccccc2-c2ccc(F)c(CNc3ccc([C@H]4C[C@@H]4C(=O)O)nc3)c2)CC1 [Example 29]	0.696			57	
Cc1cc(-c2nnn(C)n2)cc(C)c1-c1ccc(F)c2c1CC[C@H]2Oc1ccc([C@H]2C[C@@H]2C(=O)O)cc1 [WO 2013/178575 Example 45, reference compound]					< 1
